Data reported in paper PMC6385123, “Design, Synthesis, Anticancer Evaluation and Molecular Modeling of Novel Estrogen Derivatives” (Molecules, 2019).

Legend:
[1] = target: T1, p53 ubiquitination (GST-tagged HDM2) (Homo sapiens, UniProt Q00987); assay: In vitro p53 ubiquitination assay; format: biochemical
T1 construct: GS4b-MDM2 RING beads were prepared as above and were used in place of the full-length MDM2; made in house; host or cells: Escherichia coli BL21
Procedure: Different prepared derivatives were evaluated for their inhibitory potential against p53 ubiquitination. The method is based on incubating different compounds with GST-tagged HDM2, immobilized on glutathione-Sepharose, p53, ubiquitin, E1 and E2 (UbcH5B) ligases. The buffer contained ATP as detailed by Gomha and Abdelaziz. The reaction products were then resolved by SDSPAGE and p53 ubiquitination and were quantified by Western blotting using an anti-p53 antibody.
Briefly, rGSH-S-transferase-tagged MDM2 (GST-MDM2) was expressed in Escherichia coli BL21 cells using 1 mM isopropyl-thio-b-D-galactoside for 3 h. The enzyme was then purified on glutathione-sepharose beads (Amersham). Beads were washed with Tris (pH 7.5). The reaction contained fluorescent ubiquitin (5 µg; Invitrogen), 50 ng mammalian E1 (Enzo), 200 ng human rUbcH5B E2 (Enzo), 200 ng His-p53 (Enzo) and buffer [50 mM Tris pH 8,2 mM dithiothreitol, 5 mM MgCl2, 2 mM adenosine triphosphate (ATP)]. The MPD-compound or control mixture was dose-titrated onto GS4b-MDM2 beads. Incubation at 37 °C was followed by shaking (1200 rpm, 1 h). The reaction was terminated with 3× sodium dodecyl sulfate sample buffer. Finally, unbound fluorescent ubiquitin was drained and the total fluorescent ubiquitin signal was measured using a plate reader (Safire).
The procedure was performed similar to the aforementioned protocol except that 5 µg unlabeled ubiquitin (Enzo) was used. Following incubation, resolving of reaction products was performed using sodium dodecyl sulfate PGE. Analysis was done by western blotting using anti-p53 DO-1. For the MDM2 RING auto-ubiquitination assay, GS4b-MDM2 RING beads were prepared as above and were used in place of the full-length MDM2.

MCF-7 cells = assay: In vitro cytotoxic activity, MTT assay, MCF-7; format: cell-based, human
Procedure: (§1) MCF-7 (human breast cancer) cells, obtained from Sigma-Aldrich Chemie GmbH, Taufkirchen, Germany, were propagated in RPMI-1640 supplemented with 10% heat inactivated FBS, 2 mM L-glutamine, and 1% standard antibiotic solution. Cells were incubated in a 5% CO2 humidified incubator at 37 °C and passaged bi-weekly. The in vitro anti-proliferative activity of the newly synthesized derivatives was assayed using standard MTT technique. Results were expressed as IC50. Experiments were repeated at least in triplicate, to obtain good reproducibility between replicate wells with standard errors below 10%. Furthermore, the cytotoxic effects of the prepared derivatives were evaluated against normal nonmalignant cells, non-tumorigenic MCF-10A, in order to find out if the synthesized derivatives have toxicity against normal cells. Additionally, results were compared with reference compounds (cisplatin and milaplatin) as positive controls.

p53 ubiquitination = assay: In vivo ubiquitination of p53 (transfected cells); format: cell-based
Procedure: In vivo ubiquitination of p53 was assayed according to [38] Cells were grown for 24 h (50% confluency) before transfection of 1 µg p53, 4 µg MDM2 and 1 µg HIS-ubiquitin with Gene Juice reagent. Grown for another 20 h, cells were exposed to prepared derivatives or controls for 6 h and MG132 for 4 h, then washed and collected in PBS, where 5% of the solution was kept as an input. The remaining pelleted cells (95% after centrifugation) were lysed in 700 µL of ubiquitin buffer A (6 M guanidinium HCl, 300 mM NaCl, 50 mM phosphate pH 8.0, 100 µg/mL N-ethylmaleimide), and sonicated for 5 min at 20% amplitude. Lysates were incubated overnight with Invitrogen Dynabeads His-Tag matrix and washed once with ubiquitin buffers A, B, C and phosphate buffered saline (ubiquitin buffer B: Mix ubiquitin buffer A and ubiquitin buffer C 1:1; ubiquitin buffer C: 300 mM NaCl, 50 mM phosphate pH 8.0, 100 µg/mL N-ethylmaleimide). The washed lysates were resolved by 8% sodium dodecyl sulfate–polyacrylamide gel electrophoresis, followed by immunoblotting with a p53 (DO-1) antibody.

MCF-7 xenografts = assay: In vivo breast cancer mouse xenograft model; set-up: species or system nude mice
Procedure: The breast cancer xenograft model protocol was approved by the Institutional Animal Use and Care Committee of the University of Alabama at Birmingham (50-01-05-08B). Female athymic pathogen-free nude mice (nu/nu, 4–6 weeks) were used. Firstly, MCF-7 xenografts were initiated by implanting pellets slowly releasing estrogen for two months (1.7mg 17β-estradiol/pellet) subcutaneously in the female nude mice. After 24 h, confluent MCF-7 cells were harvested, washed two times with serum-free medium, re-suspended and injected subcutaneously (s.c.) (5 × 10^6 cells, total volume 0.2 mL) into the left inguinal area of the mice. Caliper measurement was used to measure tumor growth in two perpendicular diameters of the implant after 48 h, and its volume was determined. Mice grafted with MCF-7 were divided into different groups (7–10 mice/group). Untreated mice received the solvent only. Treated groups received different prepared derivatives as previously described.

VEGFR-2 = VEGFR-2 (Homo sapiens, UniProt P35968); assay: VEGFR-2 kinase inhibition assay; format: biochemical; details: 8 μM ATP, poly(Glu,Tyr)4:1 substrate; read-out: IC50 (Mean ± SEM) VEGFR-2
Procedure: (§2) The EGFR and VEGFR-2 kinase activities were assayed as previously described. The assay was performed in 96-well plates pre-coated with 20 μg mL^−1 poly (Glu, Tyr)4:1 (Sigma-Aldrich Chemie GmbH, Taufkirchen, Germany) as a substrate. In each well, 85 μL of an 8 μM ATP solution and 10 μL of the compound were added at varying concentrations. Experiments were repeated three times. Reactions started with 5 μL of different kinases and incubation for 1 h at 37 °C. Plates were 3X-washed with PBS/0.1% Tween 20. Accordingly, 100 μL of anti-phosphotyrosine (PY99; 1:500 dilutions) antibody was added, and plates were incubated for another hour at room temperature. Plates were then 3X-washed, and addition of goat anti-mouse IgG horseradish peroxidase (100 μL; 1:2000 dilution) diluted in T-PBS containing 5 mg mL^−1 BSA followed. Plates were further incubated at room temperature for another hour, and then 3X-washed. Finally, 100 μL (developing solution, 0.03% H2O2, 2 mg mL^−1 o-phenylenediamine/citrate buffer, 0.1 M, pH 5.5) was added and incubation continued until color development. The reaction was stopped by 100 μL of 2M H2SO4, and the absorption was measured at 492 nm using a multiwell spectrophotometer (VERSAmax™). The inhibition rate (%) was calculated using the equation:Inhibition rate (%) = [1 − (A492/A492Control)] × 100%(1)

EGFR = EGFR (Homo sapiens, UniProt P00533); assay: EGFR kinase inhibition assay; format: biochemical; details: 8 μM ATP, poly(Glu,Tyr)4:1 substrate; read-out: IC50 (Mean ± SEM) EGFR
Procedure: as §2

MCF-10A cells = assay: In vitro cytotoxicity against normal non-tumorigenic cells, MTT assay; format: cell-based; details: Homo sapiens, normal non-tumorigenic MCF-10A cells, read-out: IC50 (Mean ± SEM) MCF-10A
Procedure: as §1

T1 sequence (Q00987 whole entry): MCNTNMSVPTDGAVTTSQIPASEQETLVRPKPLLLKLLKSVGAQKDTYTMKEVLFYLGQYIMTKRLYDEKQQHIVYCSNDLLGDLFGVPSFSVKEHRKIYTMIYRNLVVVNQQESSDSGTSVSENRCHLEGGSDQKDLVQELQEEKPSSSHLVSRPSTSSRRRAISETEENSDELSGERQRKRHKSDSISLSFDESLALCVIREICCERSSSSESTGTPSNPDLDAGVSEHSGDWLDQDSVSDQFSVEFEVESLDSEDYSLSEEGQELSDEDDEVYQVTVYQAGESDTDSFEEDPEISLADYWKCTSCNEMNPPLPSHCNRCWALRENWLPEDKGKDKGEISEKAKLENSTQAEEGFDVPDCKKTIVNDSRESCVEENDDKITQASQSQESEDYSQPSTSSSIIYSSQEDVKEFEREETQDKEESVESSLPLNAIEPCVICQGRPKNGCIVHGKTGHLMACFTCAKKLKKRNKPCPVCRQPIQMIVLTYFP
Sequence of VEGFR-2 (P35968 20-1356): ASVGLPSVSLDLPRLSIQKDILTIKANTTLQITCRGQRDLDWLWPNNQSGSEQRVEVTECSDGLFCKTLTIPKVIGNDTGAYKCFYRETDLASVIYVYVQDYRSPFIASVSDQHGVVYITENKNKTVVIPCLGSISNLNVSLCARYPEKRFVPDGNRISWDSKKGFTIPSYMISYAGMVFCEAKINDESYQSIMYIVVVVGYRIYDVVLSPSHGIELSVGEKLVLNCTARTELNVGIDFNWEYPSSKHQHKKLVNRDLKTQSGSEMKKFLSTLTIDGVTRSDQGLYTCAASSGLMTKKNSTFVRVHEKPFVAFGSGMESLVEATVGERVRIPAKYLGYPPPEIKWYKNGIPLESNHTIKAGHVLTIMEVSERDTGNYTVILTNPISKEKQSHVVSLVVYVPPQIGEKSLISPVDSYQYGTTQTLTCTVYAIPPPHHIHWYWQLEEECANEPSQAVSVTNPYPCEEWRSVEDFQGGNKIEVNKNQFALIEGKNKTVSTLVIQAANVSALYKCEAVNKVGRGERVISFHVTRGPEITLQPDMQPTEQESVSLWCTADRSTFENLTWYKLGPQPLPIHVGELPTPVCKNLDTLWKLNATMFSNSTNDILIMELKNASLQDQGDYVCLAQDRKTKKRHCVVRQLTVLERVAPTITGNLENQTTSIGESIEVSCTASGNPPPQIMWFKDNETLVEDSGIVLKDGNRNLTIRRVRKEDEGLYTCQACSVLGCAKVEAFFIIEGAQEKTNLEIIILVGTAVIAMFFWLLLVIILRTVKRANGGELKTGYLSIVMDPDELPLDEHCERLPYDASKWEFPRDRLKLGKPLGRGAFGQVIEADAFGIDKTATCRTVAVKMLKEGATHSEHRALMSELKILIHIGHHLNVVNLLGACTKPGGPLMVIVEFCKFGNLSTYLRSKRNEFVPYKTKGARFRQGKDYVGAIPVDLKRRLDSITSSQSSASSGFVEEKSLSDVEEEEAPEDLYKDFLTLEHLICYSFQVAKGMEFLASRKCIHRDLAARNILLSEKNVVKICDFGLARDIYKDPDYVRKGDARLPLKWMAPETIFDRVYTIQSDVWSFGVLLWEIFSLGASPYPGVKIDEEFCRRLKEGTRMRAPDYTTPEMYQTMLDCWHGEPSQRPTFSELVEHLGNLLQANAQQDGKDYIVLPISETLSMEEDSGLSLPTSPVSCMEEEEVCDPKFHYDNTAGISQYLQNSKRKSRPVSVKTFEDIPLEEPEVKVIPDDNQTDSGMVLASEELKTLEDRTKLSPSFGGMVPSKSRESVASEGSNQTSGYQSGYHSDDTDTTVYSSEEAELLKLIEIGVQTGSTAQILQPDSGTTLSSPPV
Sequence of EGFR (P00533 25-1210): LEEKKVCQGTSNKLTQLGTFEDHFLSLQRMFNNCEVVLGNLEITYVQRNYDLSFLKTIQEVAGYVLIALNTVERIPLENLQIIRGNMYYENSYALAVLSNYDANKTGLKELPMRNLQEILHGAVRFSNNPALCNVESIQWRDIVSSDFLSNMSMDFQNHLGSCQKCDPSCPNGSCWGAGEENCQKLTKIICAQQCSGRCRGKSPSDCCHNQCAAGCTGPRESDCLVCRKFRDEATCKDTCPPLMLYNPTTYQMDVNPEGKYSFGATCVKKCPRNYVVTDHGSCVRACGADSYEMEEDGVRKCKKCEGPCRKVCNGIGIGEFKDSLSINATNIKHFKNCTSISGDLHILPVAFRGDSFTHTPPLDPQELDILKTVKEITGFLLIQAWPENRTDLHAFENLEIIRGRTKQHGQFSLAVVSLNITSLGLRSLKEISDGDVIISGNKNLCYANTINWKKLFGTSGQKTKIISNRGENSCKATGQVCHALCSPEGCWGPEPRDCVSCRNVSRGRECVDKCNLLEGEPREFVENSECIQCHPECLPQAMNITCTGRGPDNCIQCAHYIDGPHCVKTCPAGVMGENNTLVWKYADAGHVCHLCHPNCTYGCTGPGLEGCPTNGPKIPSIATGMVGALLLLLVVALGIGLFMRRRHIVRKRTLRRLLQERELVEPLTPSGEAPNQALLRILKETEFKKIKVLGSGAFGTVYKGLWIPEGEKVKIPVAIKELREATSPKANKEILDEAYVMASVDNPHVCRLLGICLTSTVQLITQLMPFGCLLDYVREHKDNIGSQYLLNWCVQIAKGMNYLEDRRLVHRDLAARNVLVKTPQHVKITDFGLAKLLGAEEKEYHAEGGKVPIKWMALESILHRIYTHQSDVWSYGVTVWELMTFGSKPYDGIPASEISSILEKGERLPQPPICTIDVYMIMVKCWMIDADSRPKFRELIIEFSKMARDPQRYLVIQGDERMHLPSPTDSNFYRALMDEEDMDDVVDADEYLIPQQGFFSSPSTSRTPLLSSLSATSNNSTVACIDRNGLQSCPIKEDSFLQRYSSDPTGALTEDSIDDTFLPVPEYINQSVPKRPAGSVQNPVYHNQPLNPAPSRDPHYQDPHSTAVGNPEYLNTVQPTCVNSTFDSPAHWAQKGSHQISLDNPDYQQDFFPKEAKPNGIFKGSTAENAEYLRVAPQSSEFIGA

SMILES: CC12CCC3c4ccc(O)cc4CCC3C1CC1=C2NC(=N)NC1c1ccccc1Cl (stereo not shown) [Compound 5a, 2′-Imino-6′-(2-chlorophenyl)-estra-1(10),2,4,16(17)-tetraien-[17,16-d]-pyrimidino-3-ol]
- melting point: 286 to 288 °C
- IC50 ([1]; GST-tagged HDM2, p53, ubiquitin, E1 and E2 (UbcH5B), read-out: IC50 (Mean ± SEM) In Vitro p53 Ubiquitination): 16.4 ± 0.23 µM
- fold more active than standard drug, in vitro p53 ubiquitination ([1]; vs diphenyl imidazole): 15.8 fold
- IC50 (MCF-7 cells; Homo sapiens, MCF7, MTT assay, MCF-7 cell line, read-out: IC50 (Mean ± SEM) MCF-7): 18.38 ± 0.13 µM
- fold more toxic than the least active compound 7b towards MCF-7 (MCF-7 cells; ratio of IC50 values, 5a vs 7b): 2.5 fold
- IC50 (p53 ubiquitination; cells transfected with p53, MDM2, HIS-ubiquitin, exposed 6 h, read-out: IC50 (Mean ± SEM) In Vivo p53 Ubiquitination): 0.22 ± 0.0043 µM
- fold more active than standard drug, in vivo p53 ubiquitination (p53 ubiquitination; vs diphenyl imidazole): 8.6 fold
- decrease in tumor growth (MCF-7 xenografts; after 2 days of treatment, vs control animals): about 25.36%
- maximal inhibition of tumor growth (MCF-7 xenografts; after 10 days of treatment): 91.1%
- inhibition percentage of tumor growth (MCF-7 xenografts; after 14 days of treatment): 88.7%
- IC50 (VEGFR-2): 0.027 ± 0.0012 µM
- IC50 (EGFR): 0.086 ± 0.0032 µM
- IC50 (MCF-10A cells): 211 ± 7.53 µM
